Source: US20220220155A1, “VASCULAR C[…] USE THEREOF” (priority 2019, published 2022)
Where a SMILES comes first, the peptide text is derived from it. [ ]: non-standard residue; d: D form. ξ: configuration not given here. ξD = NC(CC(=O)O)C(=O)O

Assays:
SMase-treated LDL = molecular target: T1, SMase-treated LDL (Homo sapiens, UniProt P04114); assay: Anti-LDL aggregation assay, turbidimetry, aggregation induced by sphingomyelinase (SMase); type: biochemical; settings: peptide 10 μM (compound/ApoB-100 4.7/1), human LDL 1.44 mg/mL, 40 U/L Bacillus cereus SMase, 18 hours, 37° C., absorbance at 405 nm, Equation I
T1 construct: from tissue; host or cells: pooled normolipemic human plasma
T1 sequence (P04114 28-4563): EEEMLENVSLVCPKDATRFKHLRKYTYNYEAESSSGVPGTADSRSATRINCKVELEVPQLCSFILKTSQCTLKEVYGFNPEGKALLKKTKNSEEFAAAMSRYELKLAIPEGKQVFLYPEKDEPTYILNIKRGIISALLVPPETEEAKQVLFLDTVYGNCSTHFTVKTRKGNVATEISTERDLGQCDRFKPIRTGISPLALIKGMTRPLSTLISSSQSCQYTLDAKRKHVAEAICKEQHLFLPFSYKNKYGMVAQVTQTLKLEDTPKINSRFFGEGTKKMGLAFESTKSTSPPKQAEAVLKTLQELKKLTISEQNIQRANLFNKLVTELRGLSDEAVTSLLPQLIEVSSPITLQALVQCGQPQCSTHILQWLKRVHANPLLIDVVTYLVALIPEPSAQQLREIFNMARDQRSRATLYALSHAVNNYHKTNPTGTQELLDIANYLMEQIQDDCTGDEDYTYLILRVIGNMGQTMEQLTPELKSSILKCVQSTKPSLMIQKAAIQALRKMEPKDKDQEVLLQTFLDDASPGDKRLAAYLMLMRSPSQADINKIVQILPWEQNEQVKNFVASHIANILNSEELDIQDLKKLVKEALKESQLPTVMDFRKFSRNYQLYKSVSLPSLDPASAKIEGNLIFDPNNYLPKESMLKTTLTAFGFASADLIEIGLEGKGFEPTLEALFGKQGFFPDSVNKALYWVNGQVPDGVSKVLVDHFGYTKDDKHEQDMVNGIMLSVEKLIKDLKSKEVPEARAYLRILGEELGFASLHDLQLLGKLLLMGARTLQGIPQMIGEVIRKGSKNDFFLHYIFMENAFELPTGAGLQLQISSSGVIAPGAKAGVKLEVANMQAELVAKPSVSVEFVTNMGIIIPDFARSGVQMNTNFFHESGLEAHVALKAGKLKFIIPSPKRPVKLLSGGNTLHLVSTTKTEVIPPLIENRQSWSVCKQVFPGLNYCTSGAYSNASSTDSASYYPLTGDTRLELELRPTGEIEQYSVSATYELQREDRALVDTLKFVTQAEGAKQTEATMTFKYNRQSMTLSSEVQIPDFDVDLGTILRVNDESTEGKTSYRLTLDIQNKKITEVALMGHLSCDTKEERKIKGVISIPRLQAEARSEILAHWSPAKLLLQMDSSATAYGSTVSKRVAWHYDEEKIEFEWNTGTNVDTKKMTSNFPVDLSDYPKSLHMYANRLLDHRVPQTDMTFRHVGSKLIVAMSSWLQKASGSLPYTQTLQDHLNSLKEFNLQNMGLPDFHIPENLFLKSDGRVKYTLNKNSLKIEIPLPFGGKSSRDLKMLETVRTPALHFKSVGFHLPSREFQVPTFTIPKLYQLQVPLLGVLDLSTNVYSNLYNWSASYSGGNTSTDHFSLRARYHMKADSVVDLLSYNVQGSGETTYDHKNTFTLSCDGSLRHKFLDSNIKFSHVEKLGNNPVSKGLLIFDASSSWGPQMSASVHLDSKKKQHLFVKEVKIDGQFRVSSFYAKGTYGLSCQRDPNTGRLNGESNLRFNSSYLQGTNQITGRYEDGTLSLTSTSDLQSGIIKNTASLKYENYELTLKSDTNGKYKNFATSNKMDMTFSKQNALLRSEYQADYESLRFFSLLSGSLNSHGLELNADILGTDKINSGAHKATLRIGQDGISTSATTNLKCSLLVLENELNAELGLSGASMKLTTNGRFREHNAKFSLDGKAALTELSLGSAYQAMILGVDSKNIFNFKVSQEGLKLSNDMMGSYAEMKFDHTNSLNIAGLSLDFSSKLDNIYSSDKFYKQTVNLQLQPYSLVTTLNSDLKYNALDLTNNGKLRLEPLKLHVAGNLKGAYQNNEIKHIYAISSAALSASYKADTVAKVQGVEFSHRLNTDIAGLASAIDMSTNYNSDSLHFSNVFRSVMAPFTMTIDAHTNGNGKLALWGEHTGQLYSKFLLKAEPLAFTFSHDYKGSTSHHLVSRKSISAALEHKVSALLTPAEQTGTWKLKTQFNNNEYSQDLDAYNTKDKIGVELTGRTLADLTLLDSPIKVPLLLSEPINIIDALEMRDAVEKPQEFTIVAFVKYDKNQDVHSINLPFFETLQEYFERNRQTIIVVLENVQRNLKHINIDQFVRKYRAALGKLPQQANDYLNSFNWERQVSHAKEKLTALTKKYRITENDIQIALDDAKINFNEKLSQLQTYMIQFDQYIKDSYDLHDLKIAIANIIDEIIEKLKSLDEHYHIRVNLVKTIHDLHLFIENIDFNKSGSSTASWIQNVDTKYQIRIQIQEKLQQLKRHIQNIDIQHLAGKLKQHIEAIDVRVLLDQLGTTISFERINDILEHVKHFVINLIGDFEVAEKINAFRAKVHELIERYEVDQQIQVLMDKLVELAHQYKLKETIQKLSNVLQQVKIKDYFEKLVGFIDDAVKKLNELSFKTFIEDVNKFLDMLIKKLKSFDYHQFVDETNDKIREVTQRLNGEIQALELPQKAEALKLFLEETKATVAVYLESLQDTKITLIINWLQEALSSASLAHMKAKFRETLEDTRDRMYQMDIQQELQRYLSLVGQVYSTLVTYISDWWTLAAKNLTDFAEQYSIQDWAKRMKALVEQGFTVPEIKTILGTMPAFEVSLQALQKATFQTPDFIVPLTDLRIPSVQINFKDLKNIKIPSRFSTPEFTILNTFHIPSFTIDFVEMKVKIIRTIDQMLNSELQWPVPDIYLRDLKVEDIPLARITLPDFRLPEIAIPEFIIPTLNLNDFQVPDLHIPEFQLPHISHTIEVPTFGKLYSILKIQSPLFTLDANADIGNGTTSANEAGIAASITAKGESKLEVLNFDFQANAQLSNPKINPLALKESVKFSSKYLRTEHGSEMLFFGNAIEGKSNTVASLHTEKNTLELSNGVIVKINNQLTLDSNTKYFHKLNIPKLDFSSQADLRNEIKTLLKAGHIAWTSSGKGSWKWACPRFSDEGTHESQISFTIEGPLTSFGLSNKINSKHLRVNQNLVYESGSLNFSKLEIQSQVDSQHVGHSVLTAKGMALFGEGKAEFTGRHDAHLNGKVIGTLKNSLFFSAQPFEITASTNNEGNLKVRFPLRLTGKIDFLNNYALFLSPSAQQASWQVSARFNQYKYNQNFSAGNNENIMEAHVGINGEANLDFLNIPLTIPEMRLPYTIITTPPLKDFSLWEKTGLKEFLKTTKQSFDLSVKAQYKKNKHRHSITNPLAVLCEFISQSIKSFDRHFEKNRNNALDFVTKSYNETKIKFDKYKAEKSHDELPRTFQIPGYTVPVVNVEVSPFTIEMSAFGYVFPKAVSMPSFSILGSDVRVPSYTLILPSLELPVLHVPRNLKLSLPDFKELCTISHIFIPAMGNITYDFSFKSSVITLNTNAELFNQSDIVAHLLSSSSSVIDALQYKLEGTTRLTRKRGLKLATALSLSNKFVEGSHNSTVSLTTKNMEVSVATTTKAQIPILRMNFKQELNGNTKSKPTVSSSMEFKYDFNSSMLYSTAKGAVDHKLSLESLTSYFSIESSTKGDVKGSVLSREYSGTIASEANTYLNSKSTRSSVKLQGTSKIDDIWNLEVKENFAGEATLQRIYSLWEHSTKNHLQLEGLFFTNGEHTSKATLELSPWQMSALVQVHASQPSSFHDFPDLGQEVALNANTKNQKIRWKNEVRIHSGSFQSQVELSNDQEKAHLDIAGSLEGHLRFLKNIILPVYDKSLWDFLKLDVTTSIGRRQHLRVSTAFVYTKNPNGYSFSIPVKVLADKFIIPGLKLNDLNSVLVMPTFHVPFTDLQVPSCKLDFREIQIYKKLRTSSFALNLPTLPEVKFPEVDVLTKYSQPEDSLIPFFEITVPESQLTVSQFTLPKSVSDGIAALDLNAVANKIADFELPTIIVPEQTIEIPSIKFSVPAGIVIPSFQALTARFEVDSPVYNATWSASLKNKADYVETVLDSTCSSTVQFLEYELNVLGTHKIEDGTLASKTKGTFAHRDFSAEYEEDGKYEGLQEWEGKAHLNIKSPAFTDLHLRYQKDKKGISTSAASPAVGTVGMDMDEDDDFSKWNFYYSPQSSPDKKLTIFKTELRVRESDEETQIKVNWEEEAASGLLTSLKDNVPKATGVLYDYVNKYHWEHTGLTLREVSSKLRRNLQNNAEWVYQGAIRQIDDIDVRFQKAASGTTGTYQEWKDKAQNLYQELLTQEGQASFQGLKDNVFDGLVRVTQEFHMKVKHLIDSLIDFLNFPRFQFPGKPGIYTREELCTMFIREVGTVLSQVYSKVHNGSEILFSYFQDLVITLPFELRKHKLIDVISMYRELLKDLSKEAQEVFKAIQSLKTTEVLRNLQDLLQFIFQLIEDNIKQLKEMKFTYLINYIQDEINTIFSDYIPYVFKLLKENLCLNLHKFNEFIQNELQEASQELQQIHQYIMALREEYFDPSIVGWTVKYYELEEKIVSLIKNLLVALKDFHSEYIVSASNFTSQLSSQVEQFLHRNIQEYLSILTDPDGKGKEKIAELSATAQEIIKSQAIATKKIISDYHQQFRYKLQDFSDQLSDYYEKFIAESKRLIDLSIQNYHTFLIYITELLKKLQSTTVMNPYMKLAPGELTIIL
Experimental: (§1) The efficacy of the novel compounds to inhibit the aggregation of LDL has been tested in two parallel turbidimetric assays differing from each other only in the enzyme used to induce LDL aggregation, namely sphingomyelinase (SMase) and phospholipase A2 (PLA2), respectively.
(§2) Human LDL (d1.019-d1.063 g/mL) were obtained from pooled normolipemic human plasma by sequential ultracentrifugation in a KBr density gradient. Briefly, VLDL were first discarded after spinning plasma at 36.000 rpm for 18 h at 4° C., VLDL-free plasma was layered with 1.063 g/mL KBr solution and centrifuged at 36,000 rpm for 18 h at 4° C. LDL were dialyzed against 0.02 M Tris, 0.15 M NaCl, 1 mM EDTA, pH 7.5 for 18 hours, and then against normal saline for 2 hours. Finally, isolated LDL were filter-sterilized. Protein concentration was determined using a colorimetric assay.
(§3) Human LDL particles (1.44 mg/mL) were incubated with 40 U/L of Bacillus cereus SMase or with 50 μg/L of type II secretory PLA2 from honey bee venom in 20 mM Tris buffer (pH 7.0) containing 150 mM NaCl, 2 mM CaCl2), and MgCl2 at 37° C. LDL incubation with SMase and PLA2 was performed at peptide concentration of 10 μM (ratio compound/ApoB-100: 4.7/1) for 18 hours. LDL lipolysis was stopped by addition of EDTA (final concentration 10 mM).
(§4) The efficiency of each novel compound to inhibit LDL aggregation induced by SMase and PLA2 was estimated by turbidimetry measuring the absorbance at a wavelength of 405 nm. Thus, the inhibitory activity was calculated according to Equation I.
(§5) a corresponds to the absorbance value in the presence of nLDL particles, LDL aggregating enzyme (i.e., SMase or PLA2) and test compound;
(§6) b corresponds to the absorbance value in the presence of only nLDL particles;
(§7) c corresponds to the absorbance value in the presence of nLDL particles and LDL aggregating enzyme (i.e., SMase or PLA2);

[1] = test system: human coronary vascular smooth muscle cells (hcVSMC); assay: Inhibition of intracellular cholesterol accumulation induced by SMase (CE/FC ratio); type: cell-based; settings: hcVSMC exposed 2 hours to SMase-LDL treated overnight with peptide 10 μM; CE and FC by thin layer chromatography and densitometry, Equation II
Experimental: Thus, the inhibitory effect of the novel compounds on the intracellular cholesterol accumulation has been analysed in terms of decrease in the ratio of intracellular CE and free cholesterol FC content of hcVSMC exposed to LDL and SMase-LDL.
All cells used were from a unique batch in order to prevent variability from cell origin. Cell quiescence was induced by maintaining the cell culture for 24 hours in a medium. Serum-deprived cells between passages 4 and 8 were used for experiments. VSMCs at these passages appeared as a relatively homogeneous population, showing a hill-and-valley confluence pattern. Cell monolayers were grown in vascular cell basal medium supplemented with vascular smooth muscle growth kit components. Quiescent cells were 2-hours exposed to LDL treated with SMase (in absence or presence of peptides) overnight at a concentration of 10 μM previously checked its aggregation by a turbidimetry test. Cells were then either collected for lipid extraction or processed for confocal microscopy analysis.
Following the lipoprotein incubation period, hcVSMC were exhaustively washed (twice with PBS, twice with PBS supplemented with 1% BSA, and once with PBS supplemented with both 1% BSA and 100 U/mL heparin), before they were harvested into 1 mL of 0.15 M NaOH. Lipids were extracted using the Bligh and Dyer method. The lipid extract was redissolved in dichloromethane, applied to silica gel plates, and separated by thin layer chromatography. A mixture of cholesterol and cholesterol palmitate, were also run as standards. Heptane or a solvent combination of heptane/diethylether/acetic acid (74:21:4, v/v/v) were used as chromatographic mobile phase. After lipid separation, the plates were dried and stained as previously reported. Finally, the spots corresponding to cholesteryl ester (CE) and free cholesterol (FC) were quantitated by densitometry.
The efficacy of each novel compound to decrease the ratio of intracellular cholesteryl esters (CE) and free cholesterol (FC) content of hcVSMC exposed to LDL and SMase-LDL was calculated according to Equation II.
a corresponds to the CE/FC ratio in hcVSMC exposed to SMase-LDL and in the presence of the test compound.
b corresponds to the CE/FC ratio in hcVSMC exposed to nLDL in the absence of the test compound.
c corresponds to the CE/FC ratio in hcVSMC exposed to SMase-LDL in the absence of the test compound.

PLA2-treated LDL = molecular target: T2, PLA2-treated LDL (Homo sapiens, UniProt P04114); assay: Anti-LDL aggregation assay, turbidimetry, aggregation induced by phospholipase A2 (PLA2); type: biochemical; settings: 18 h, read-out: Inhibition of LDL aggregation, PLA2-treated LDL
T2 construct: from tissue; host or cells: pooled normolipemic human plasma
T2 sequence (P04114 28-4563): as above
Experimental: as §1, §2, §3, §4, §5, §6, §7

| Compound | inhibition at 10 µM (SMase-treated LDL) [%] | CE/FC ratio decrease (%) [1] [%] | inhibition at 10 µM (PLA2-treated LDL) [%] |
| --- | --- | --- | --- |
| CC(=O)N[C@H](CC(=O)O)C(=O)N[C@H](CO)C(=O)N[C@H](CCC(=O)O)C(=O)N[C@H](CC(=O)O)C(=O)N[C@H](CC(N)=O)C(=O)N[C@H](CCCCN)C(=O)N[C@H](CC(=O)O)C(=O)N[C@H](CCC(=O)O)C(=O)N[C@H](CCC(=O)O)C(=O)N[C@H](C)C(N)=O [Example 19, Ac-D-Asp-D-Ser-D-Glu-D-Asp-D-Asn-D-Lys-D-Asp-D-Glu-D-Glu-D-Ala-NH2] (Ac-[dD][dS][dE][dD][dN][dK][dD][dE][dE][dA]-NH2) | 87.5 | 17.7 | 46.2 |
| CC(=O)N[C@H](CC(N)=O)C(=O)N[C@H](CC(=O)O)C(=O)N[C@H](CO)C(=O)N[C@H](CCC(=O)O)C(=O)N[C@H](CC(=O)O)C(=O)N[C@H](CC(N)=O)C(=O)N[C@H](CO)C(=O)N[C@H](CC(=O)O)C(=O)N[C@H](CCC(=O)O)C(=O)N[C@H](CCC(=O)O)C(=O)N[C@H](CC(N)=O)C(N)=O [Example 11, Ac-D-Asn-D-Asp-D-Ser-D-Glu-D-Asp-D-Asn-D-Ser-D-Asp-D-Glu-D-Glu-D-Asn-NH2] (Ac-[dN][dD][dS][dE][dD][dN][dS][dD][dE][dE][dN]-NH2) | 94.8 | 76.5 | 95.2 |
| CC(=O)N[C@H](CO)C(=O)N[C@H](CCC(=O)O)C(=O)N[C@H](CC(=O)O)C(=O)N[C@H](CC(N)=O)C(=O)N[C@H](CO)C(=O)N[C@H](CC(=O)O)C(=O)N[C@H](CCC(=O)O)C(=O)N[C@H](CCC(=O)O)C(=O)N[C@H](CC(N)=O)C(N)=O [Example 2, Ac-D-Ser-D-Glu-D-Asp-D-Asn-D-Ser-D-Asp-D-Glu-D-Glu-D-Asn-NH2] (Ac-[dS][dE][dD][dN][dS][dD][dE][dE][dN]-NH2) | 80.7 | 58.8 | 87.7 |
| CC(=O)N[C@H](CC(N)=O)C(=O)N[C@H](CC(=O)O)C(=O)N[C@H](CO)C(=O)N[C@H](CCC(=O)O)C(=O)N[C@H](CC(=O)O)C(=O)N[C@H](CC(N)=O)C(=O)N[C@H](CO)C(=O)NC(CC(=O)O)C(=O)N[C@H](CCC(=O)O)C(=O)N[C@H](CCC(=O)O)C(=O)N[C@H](C)C(N)=O (stereo partly drawn) [Example 14, Ac-D-Asn-D-Asp-D-Ser-D-Glu-D-Asp-D-Asn-D-Ser-D-Asp-D-Glu-D-Glu-D-Ala-NH2] (Ac-[dN][dD][dS][dE][dD][dN][dS][ξD][dE][dE][dA]-NH2) | 68.3 | 62.7 | 74 |
| CC(=O)N[C@H](CC(=O)O)C(=O)N[C@H](C)C(=O)N[C@H](CCC(=O)O)C(=O)N[C@H](CC(=O)O)C(=O)N[C@H](CC(N)=O)C(=O)N[C@H](C)C(=O)N[C@H](CC(=O)O)C(=O)N[C@H](CCC(=O)O)C(=O)N[C@H](CCC(=O)O)C(=O)N[C@H](C)C(N)=O [Example 17, Ac-D-Asp-D-Ala-D-Glu-D-Asp-D-Asn-D-Ala-D-Asp-D-Glu-D-Glu-D-Ala-NH2] (Ac-[dD][dA][dE][dD][dN][dA][dD][dE][dE][dA]-NH2) | 95.2 | 67.4 | 66.1 |
| CC(=O)N[C@H](CC(=O)O)C(=O)N[C@H](CC(N)=O)C(=O)N[C@H](CC(=O)O)C(=O)N[C@H](CO)C(=O)N[C@H](CCC(=O)O)C(=O)N[C@H](CC(=O)O)C(=O)N[C@H](CC(N)=O)C(=O)N[C@H](CO)C(=O)N[C@H](CC(=O)O)C(=O)N[C@H](CCC(=O)O)C(=O)N[C@H](CCC(=O)O)C(=O)N[C@H](CC(N)=O)C(N)=O [Example 10, Ac-D-Asp-D-Asn-D-Asp-D-Ser-D-Glu-D-Asp-D-Asn-D-Ser-D-Asp-D-Glu-D-Glu-D-Asn-NH2] (Ac-[dD][dN][dD][dS][dE][dD][dN][dS][dD][dE][dE][dN]-NH2) | 96 | 78.4 | 94 |
| CC(=O)N[C@H](CC(=O)O)C(=O)N[C@H](CO)C(=O)N[C@H](CCC(=O)O)C(=O)N[C@H](CC(=O)O)C(=O)N[C@H](CC(N)=O)C(=O)N[C@H](CO)C(=O)N[C@H](CC(=O)O)C(=O)N[C@H](CCC(=O)O)C(=O)N[C@H](CCC(=O)O)C(=O)N[C@H](CC(N)=O)C(N)=O [Example 12, Ac-D-Asp-D-Ser-D-Glu-D-Asp-D-Asn-D-Ser-D-Asp-D-Glu-D-Glu-D-Asn-NH2] (Ac-[dD][dS][dE][dD][dN][dS][dD][dE][dE][dN]-NH2) | 93.3 | 76.5 | 94.3 |
